Source: publication PMC9266445, “Probing the Conformational States of Thimet Oligopeptidase in Solution” (International Journal of Molecular Sciences, 2022)

How the values were obtained:
TOP^-TrpW390/L215pNF [1] = molecular target: T1, TOP^-TrpW390/L215pNF (Rattus norvegicus, UniProt P24155, L215F/W124F/W335F/W511F/W513F/W614F); test: Inhibition constant of JA-2, continuous assay with QFS, TOP^-TrpW390/L215pNF; format: biochemical; settings: substrate QFS, 37 °C, 50 mM Tris-HCl pH 7.4, 100 mM NaCl, 0.5 mM DTT
T1 construct: made in house; host or cells: Escherichia coli BL21 (DE3), pET26b + pACYC184 (orthogonal tRNA/synthetase pair for pNF)
T1 sequence (P24155 whole entry W124F/L215F/W335F/W511F/W513F/W614F): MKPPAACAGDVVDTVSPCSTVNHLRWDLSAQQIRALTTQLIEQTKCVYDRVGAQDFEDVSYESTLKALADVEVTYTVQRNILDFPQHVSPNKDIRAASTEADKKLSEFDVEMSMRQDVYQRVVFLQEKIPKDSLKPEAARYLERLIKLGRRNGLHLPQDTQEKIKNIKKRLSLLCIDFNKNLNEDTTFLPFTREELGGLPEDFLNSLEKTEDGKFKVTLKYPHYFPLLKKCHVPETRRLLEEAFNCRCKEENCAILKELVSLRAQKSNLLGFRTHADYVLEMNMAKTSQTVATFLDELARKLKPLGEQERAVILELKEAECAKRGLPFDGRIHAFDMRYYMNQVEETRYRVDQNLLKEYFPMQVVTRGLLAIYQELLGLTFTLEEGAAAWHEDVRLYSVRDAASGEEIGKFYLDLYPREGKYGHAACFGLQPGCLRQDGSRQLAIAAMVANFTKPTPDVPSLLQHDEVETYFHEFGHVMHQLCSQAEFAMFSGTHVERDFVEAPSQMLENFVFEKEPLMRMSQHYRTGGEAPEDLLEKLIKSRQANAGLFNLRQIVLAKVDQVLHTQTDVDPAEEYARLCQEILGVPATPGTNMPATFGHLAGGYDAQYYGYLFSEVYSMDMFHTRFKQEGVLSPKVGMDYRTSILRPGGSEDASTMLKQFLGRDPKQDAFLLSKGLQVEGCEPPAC
Description: (§1) WT TOP and mutant activities were monitored spectrofluorometrically in a Shimadzu RF-5301PC spectrofluorometer using the FRET peptide QFS (Mca-Pro-Leu-Gly-Pro-D-Lys (Dnp)-OH) as substrate, with excitation and emission wavelengths of 320 and 420 nm, respectively. TOP and its mutants were pre-activated by incubation with 0.5 mM DTT for 5 min at 37 °C. The concentration of the peptide solutions was determined by measuring the absorption of the 2,4-dinitrophenyl group at 365 nm (ε = 17,300 M^−1cm^−1). The kinetic parameters of peptide hydrolysis were determined at 37 °C in 50 mM Tris-HCl buffer, pH 7.4, containing 100 mM NaCl. […] The reaction was monitored continuously via the fluorescence of the released product. The rate of increase in fluorescence was converted into moles of substrate hydrolyzed per second based on the fluorescence curves of standard peptide solutions before and after total enzymatic hydrolysis. […] An empirical equation was used to correct for the inner-filter effect, and the kinetic parameters were calculated according to Wilkinson and by using Eadie–Hofstee plots. […]
(§2) Inhibition constants were determined using the TOP inhibitor JA-2 (N-[1-(R,S)-carboxy-3-phenylpropyl]Ala-Aib-Tyr-p-aminobenzoate). The constants were determined in a continuous assay using the FRET peptide QFS as substrate. […]

TOP^-TrpW390/L215pNF [2] = molecular target: T1, TOP^-TrpW390/L215pNF; test: Protein fluorescence (Trp-pNF FRET) assay in presence of JA-2, TOP^-TrpW390/L215pNF
TOP^-TrpW390/F178pNF [3] = molecular target: T2, TOP^-TrpW390/F178pNF (Rattus norvegicus, UniProt P24155, W124F/W335F/W511F/W513F/W614F); test: Inhibition constant of JA-2, continuous assay with QFS, TOP^-TrpW390/F178pNF; format: biochemical; settings: substrate QFS, 37 °C, 50 mM Tris-HCl pH 7.4, 100 mM NaCl, 0.5 mM DTT
T2 construct: made in house; host or cells: Escherichia coli BL21 (DE3), pET26b + pACYC184 (orthogonal tRNA/synthetase pair for pNF)
T2 sequence (P24155 whole entry W124F/W335F/W511F/W513F/W614F): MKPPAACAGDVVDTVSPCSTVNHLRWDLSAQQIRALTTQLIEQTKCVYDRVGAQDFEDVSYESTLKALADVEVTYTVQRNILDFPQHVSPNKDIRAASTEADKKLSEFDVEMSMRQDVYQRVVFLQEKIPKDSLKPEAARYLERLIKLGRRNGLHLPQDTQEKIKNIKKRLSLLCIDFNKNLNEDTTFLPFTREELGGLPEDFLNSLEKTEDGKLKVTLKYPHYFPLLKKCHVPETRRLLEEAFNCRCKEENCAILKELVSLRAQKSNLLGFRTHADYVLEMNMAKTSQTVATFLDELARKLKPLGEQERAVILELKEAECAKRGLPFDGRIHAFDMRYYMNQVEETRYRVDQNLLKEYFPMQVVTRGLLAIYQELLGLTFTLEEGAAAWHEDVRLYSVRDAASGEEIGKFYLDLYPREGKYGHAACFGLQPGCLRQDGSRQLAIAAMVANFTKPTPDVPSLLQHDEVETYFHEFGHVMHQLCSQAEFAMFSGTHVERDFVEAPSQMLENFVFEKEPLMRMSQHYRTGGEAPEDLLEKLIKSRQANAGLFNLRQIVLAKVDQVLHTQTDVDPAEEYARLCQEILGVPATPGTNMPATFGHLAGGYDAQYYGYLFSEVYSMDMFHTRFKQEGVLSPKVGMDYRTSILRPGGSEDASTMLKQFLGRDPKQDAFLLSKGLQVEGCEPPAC
Description: as §1, §2

WT TOP = molecular target: T3, WT TOP (Rattus norvegicus, UniProt P24155); test: Inhibition constant of JA-2, continuous assay with QFS, WT TOP; format: biochemical; settings: substrate QFS, 37 °C, 50 mM Tris-HCl pH 7.4, 100 mM NaCl, 0.5 mM DTT
T3 construct: made in house; host or cells: Escherichia coli BL21 (DE3), pET26b
T3 sequence (P24155 whole entry): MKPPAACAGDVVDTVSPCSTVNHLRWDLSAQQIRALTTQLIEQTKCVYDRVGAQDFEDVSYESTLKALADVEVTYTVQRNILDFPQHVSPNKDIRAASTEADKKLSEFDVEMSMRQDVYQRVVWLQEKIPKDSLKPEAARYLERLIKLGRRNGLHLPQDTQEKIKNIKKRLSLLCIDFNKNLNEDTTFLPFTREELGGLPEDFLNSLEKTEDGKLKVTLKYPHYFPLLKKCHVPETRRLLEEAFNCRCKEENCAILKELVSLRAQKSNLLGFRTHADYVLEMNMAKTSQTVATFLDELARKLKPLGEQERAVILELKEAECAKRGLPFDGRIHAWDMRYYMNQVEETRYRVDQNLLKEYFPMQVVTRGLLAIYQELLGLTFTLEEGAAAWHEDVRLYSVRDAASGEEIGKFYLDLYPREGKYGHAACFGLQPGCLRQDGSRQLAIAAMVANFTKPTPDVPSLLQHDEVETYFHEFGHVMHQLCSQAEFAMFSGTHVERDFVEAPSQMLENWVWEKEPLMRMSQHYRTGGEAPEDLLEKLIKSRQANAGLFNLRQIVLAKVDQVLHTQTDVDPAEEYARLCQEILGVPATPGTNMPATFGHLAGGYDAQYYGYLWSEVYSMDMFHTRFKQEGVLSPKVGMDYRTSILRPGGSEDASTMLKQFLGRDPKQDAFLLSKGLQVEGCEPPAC
Description: as §1, §2

TOP^-TrpW390/Y224pNF [4] = molecular target: T4, TOP^-TrpW390/Y224pNF (Rattus norvegicus, UniProt P24155, W124F/W335F/W511F/W513F/W614F/Y224F); test: Inhibition constant of JA-2, continuous assay with QFS, TOP^-TrpW390/Y224pNF; format: biochemical; settings: substrate QFS, 37 °C, 50 mM Tris-HCl pH 7.4, 100 mM NaCl, 0.5 mM DTT
T4 construct: made in house; host or cells: Escherichia coli BL21 (DE3), pET26b + pACYC184 (orthogonal tRNA/synthetase pair for pNF)
T4 sequence (P24155 whole entry W124F/Y224F/W335F/W511F/W513F/W614F): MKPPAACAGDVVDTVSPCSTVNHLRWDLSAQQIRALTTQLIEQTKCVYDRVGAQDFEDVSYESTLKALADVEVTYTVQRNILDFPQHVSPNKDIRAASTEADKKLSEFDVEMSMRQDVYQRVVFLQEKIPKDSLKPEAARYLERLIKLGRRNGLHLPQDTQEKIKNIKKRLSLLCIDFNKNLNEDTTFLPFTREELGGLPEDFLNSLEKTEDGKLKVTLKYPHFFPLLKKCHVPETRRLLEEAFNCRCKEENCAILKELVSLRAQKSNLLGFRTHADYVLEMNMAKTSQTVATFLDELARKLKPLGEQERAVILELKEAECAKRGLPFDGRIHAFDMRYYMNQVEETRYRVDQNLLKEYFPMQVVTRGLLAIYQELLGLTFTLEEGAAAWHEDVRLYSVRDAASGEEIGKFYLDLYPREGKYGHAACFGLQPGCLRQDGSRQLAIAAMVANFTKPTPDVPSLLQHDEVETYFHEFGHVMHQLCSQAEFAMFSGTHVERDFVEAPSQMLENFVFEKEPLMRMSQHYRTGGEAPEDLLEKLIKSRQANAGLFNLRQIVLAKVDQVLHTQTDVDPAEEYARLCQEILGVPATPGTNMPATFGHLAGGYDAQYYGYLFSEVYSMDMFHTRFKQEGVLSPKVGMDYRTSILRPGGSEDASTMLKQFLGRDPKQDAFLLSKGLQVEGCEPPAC
Description: as §1, §2

TOP^-TrpW390/F178pNF [5] = molecular target: T2, TOP^-TrpW390/F178pNF; test: Protein fluorescence (Trp-pNF FRET) assay in presence of JA-2, TOP^-TrpW390/F178pNF
TOP^-TrpW390/L182pNF [6] = molecular target: T5, TOP^-TrpW390/L182pNF (Rattus norvegicus, UniProt P24155, L182F/W124F/W335F/W511F/W513F/W614F); test: Inhibition constant of JA-2, continuous assay with QFS, TOP^-TrpW390/L182pNF; format: biochemical; settings: substrate QFS, 37 °C, 50 mM Tris-HCl pH 7.4, 100 mM NaCl, 0.5 mM DTT
T5 construct: made in house; host or cells: Escherichia coli BL21 (DE3), pET26b + pACYC184 (orthogonal tRNA/synthetase pair for pNF)
T5 sequence (P24155 whole entry W124F/L182F/W335F/W511F/W513F/W614F): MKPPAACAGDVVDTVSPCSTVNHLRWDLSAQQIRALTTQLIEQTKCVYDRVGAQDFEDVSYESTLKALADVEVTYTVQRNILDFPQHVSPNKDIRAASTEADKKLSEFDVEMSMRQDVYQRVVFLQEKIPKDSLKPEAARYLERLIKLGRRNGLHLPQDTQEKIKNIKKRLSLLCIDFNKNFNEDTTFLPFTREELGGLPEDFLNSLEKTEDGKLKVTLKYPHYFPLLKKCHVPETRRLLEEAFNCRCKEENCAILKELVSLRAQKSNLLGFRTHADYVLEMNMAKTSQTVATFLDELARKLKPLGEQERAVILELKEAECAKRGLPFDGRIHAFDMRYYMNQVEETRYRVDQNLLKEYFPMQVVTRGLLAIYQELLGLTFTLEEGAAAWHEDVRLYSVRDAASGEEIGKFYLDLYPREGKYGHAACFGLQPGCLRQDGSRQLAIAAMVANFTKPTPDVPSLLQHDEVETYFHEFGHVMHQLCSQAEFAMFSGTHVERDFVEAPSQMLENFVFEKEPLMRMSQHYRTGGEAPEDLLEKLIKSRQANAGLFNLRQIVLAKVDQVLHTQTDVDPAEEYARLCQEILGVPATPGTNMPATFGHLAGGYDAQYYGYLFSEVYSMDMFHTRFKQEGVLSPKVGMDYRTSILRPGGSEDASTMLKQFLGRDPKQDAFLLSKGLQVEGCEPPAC
Description: as §1, §2

TOP^-TrpW390/L182pNF [7] = molecular target: T5, TOP^-TrpW390/L182pNF; test: Protein fluorescence (Trp-pNF FRET) assay in presence of JA-2, TOP^-TrpW390/L182pNF
TOP^-TrpW390 = molecular target: T6, TOP^-TrpW390 (Rattus norvegicus, UniProt P24155, W124F/W335F/W511F/W513F/W614F); test: Inhibition constant of JA-2, continuous assay with QFS, TOP^-TrpW390; format: biochemical; settings: substrate QFS, 37 °C, 50 mM Tris-HCl pH 7.4, 100 mM NaCl, 0.5 mM DTT
T6 construct: made in house; host or cells: Escherichia coli BL21 (DE3), pET26b
T6 sequence (P24155 whole entry W124F/W335F/W511F/W513F/W614F): as the sequence (P24155 whole entry W124F/W335F/W511F/W513F/W614F) above
Description: as §1, §2

TOP^-TrpW390/Y224pNF [8] = molecular target: T4, TOP^-TrpW390/Y224pNF; test: Protein fluorescence (Trp-pNF FRET) assay in presence of JA-2, TOP^-TrpW390/Y224pNF
[9] = 13.4 µM JA-2, 0.5 µM TOP protein, 37 °C, 50 mM Tris-HCl pH 7.4, 100 mM NaCl, 0.5 mM DTT
[10] = 13.4 µM JA-2, calculated using Equation (1), R0 = 15.8 Å

Compound: C[C@H](NC(CCc1ccccc1)C(=O)O)C(=O)NC(C)(C)C(=O)N[C@@H](Cc1ccc(O)cc1)C(=O)Nc1ccc(C(=O)O)cc1 (stereo partly drawn) [JA-2, N-[1-(R,S)-carboxy-3-phenylpropyl]Ala-Aib-Tyr-p-aminobenzoate]
- Ki (TOP^-TrpW390/L215pNF [1]): 870 ± 50 nM
- FRET Efficiency, +JA-2 (TOP^-TrpW390/L215pNF [2]; [9]): 0.10 ± 0.005
- D-A Distance, +JA-2 (TOP^-TrpW390/L215pNF [2]; [10]): 23 Å
- Ki (TOP^-TrpW390/F178pNF [3]): 1230 ± 80 nM
- Ki (WT TOP): 32 ± 1 nM
- Ki (TOP^-TrpW390/Y224pNF [4]): 1160 ± 60 nM
- FRET Efficiency, +JA-2 (TOP^-TrpW390/F178pNF [5]; [9]): 0.150 ± 0.009
- D-A Distance, +JA-2 (TOP^-TrpW390/F178pNF [5]; [10]): 21 Å
- Ki (TOP^-TrpW390/L182pNF [6]): 740 ± 60 nM
- FRET Efficiency, +JA-2 (TOP^-TrpW390/L182pNF [7]; [9]): 0.24 ± 0.02
- D-A Distance, +JA-2 (TOP^-TrpW390/L182pNF [7]; [10]): 19 Å
- Ki (TOP^-TrpW390): 750 ± 40 nM
- FRET Efficiency, +JA-2 (TOP^-TrpW390/Y224pNF [8]; [9]): 0.30 ± 0.02
- D-A Distance, +JA-2 (TOP^-TrpW390/Y224pNF [8]; [10]): 18 Å
